This is an account of results in US6562609B1, “Cholesterol 25-hydroxylase” (Board of Regents, The University of Texas System, priority 1998, dated 2003).

The target of test [1] is T1, cholesterol 25-hydroxylase (Mus musculus, UniProt Q9Z0F5).
T1 construct: a full-length mouse 25-hydroxylase cDNA fragment from plasmid pCMV-m25; expressed in transfected cells; host or cells: CHOP cells (CHO derivative expressing polyoma middle T antigen)
T1 sequence (Q9Z0F5 1-298): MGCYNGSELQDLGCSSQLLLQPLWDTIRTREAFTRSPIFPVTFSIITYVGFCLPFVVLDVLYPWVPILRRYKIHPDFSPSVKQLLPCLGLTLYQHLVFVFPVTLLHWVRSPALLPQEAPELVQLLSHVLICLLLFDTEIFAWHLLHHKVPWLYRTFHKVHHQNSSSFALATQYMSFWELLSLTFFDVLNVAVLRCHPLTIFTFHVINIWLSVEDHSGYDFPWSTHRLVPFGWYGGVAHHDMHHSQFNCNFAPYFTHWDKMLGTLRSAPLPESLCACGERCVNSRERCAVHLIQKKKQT
Put plainly: 25-hydroxylase activity in CHOP cells transfected with the murine cDNA. Format: cell-based. Particulars: treatment of transfected CHOP cells. The protocol: (§1) Measurement of cholesterol 25-hydroxylase activity in whole cells—The transfection medium containing the cationic lipid was aspirated and replaced with 3 ml of Medium B (DMEM containing 10% newborn calf lipoprotein-poor serum, 100 u/ml penicillin, and 100 μg/ml streptomycin sulfate) supplemented with 5 μI of [4-^14C]cholesterol (56.6 mCi/mmol; 0.040 μCi/μl; New England Nuclear, Boston, Mass.). Cells were incubated for a further 60 h at 37° C. in an atmosphere of 8.8% CO2.
(§2) Media from the transfected cells were collected and extracted with 8 ml of chloroform:methanol (2:1, v/v). The organic phase from each sample was taken to dryness under a stream of nitrogen and residues were dissolved in 40 μl aliquots of chloroform:methanol (2:1, v/v) and applied to 20×20 cm prescored LK5DF silica gel TLC plates (Whatman, Hillsboro, Oreg.) with preadsorbent layers. The plates were developed in ethyl acetate:toluene (4:6, v/v), and exposed to a Fuji BAS-MP phosphoimager plate overnight. Phosphoimage analysis was then performed on a Fuji BAS 1000 apparatus.
Inhibitor Studies—Transfection of CHOP cells was carried out as described above with the following exceptions. […] Cells and/or cells plus medium were harvested at the indicated times, extracted, and the conversion of substrate into [4-^14C]25-hydroxycholesterol product was determined by thin layer chromatography as described above. […]

Another test deals with T2, human 25-hydroxylase (Homo sapiens, UniProt O95992).
T2 construct: expressed in transfected cells; host or cells: human embryonic kidney 293 cells
T2 sequence (O95992 1-272): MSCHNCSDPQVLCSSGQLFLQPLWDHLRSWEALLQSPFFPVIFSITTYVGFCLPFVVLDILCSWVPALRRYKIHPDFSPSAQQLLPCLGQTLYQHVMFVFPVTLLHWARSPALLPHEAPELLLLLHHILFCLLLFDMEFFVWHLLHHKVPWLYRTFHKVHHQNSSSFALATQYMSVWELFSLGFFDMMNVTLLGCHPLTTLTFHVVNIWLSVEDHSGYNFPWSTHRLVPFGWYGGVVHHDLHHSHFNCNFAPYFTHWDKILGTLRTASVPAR
Put plainly: 25-hydroxylase activity in 293 cells transfected with the human cDNA. Particulars: treatment of transfected 293 cells. It counts as cell-based. The protocol: as §1, §2
This EST was used to isolate a near full-length cDNA encoding the human 25-hydroxylase as described in Experimental Procedures. Transfection into 293 cells of the human cDNA cloned in a pCMV6 vector produced abundant 25-hydroxylase enzyme activity.

Test [2] deals with cholesterol 25-hydroxylase. In words: Inhibition of cholesterol 25-hydroxylase by sterols in transfected cells. Format: cell-based. Particulars: for rank order of inhibition of cholesterol 25-hydroxylase: 3 μM [14C]cholesterol, cells treated with 2-hydroxypropyl-β-cyclodextrin; for decrease of enzyme activity: sterol 3 μM, equimolar with [14C]cholesterol (3 μM). The protocol: as §2
Inhibitor Studies—Transfection of CHOP cells was carried out as described above with the following exceptions. Cells were plated on Day 0 at a density of 150,000 cells/well in 6-well plates containing Medium C. On Day 1, cells were transfected with 2.7 μg of the indicated cholesterol 25-hydroxylase expression plasmid and 0.3 μg of pVA-1, using 12 μl of pfx-8 as transfection lipid. After 4 h, the lipid-DNA mixture was removed and 1.5 ml of Medium D was added. In certain experiments, this medium was aspirated and replaced on Day 2 with 1 ml per well of a 20 mg/ml solution of 2-hydroxypropyl-β-cyclodextrin (Sigma) in DMEM/Ham's F12 (1:1) medium and returned to the incubator. The cyclodextrin containing medium was replaced after 1-1.5 h with 1.5 ml of Medium D, and substrate and inhibitors were then added, each in a volume of 4.5 μl of ethanol. The concentration of [4-^14C]cholesterol substrate (specific activity=26.8 mCi/mmol) was 3 μM. Inhibitors were added to final concentrations of 3, 10 or 30 μM. Cells and/or cells plus medium were harvested at the indicated times, extracted, and the conversion of substrate into [4-^14C]25-hydroxycholesterol product was determined by thin layer chromatography as described above. The inhibitors used were cholesterol(5-cholesten-3β-ol), cholestanol (5α-cholestan-3β-ol), epicholesterol (5-cholesten-3α-ol), coprostanol(5β-cholestan-3β-ol), desmosterol(5,24-cholestadien-3β-ol), β-sitosterol(5-cholesten-24β-ethyl-3β-ol ), 25-hydroxycholesterol(cholest-5-ene-3β,25-diol), and 27-nor-25-oxocholesterol(27-nor-25-oxo-5-cholesten-3β-ol). All steroids were purchased from Steraloids Inc. (Wilton, N.H.), except cholesterol, which was from Sigma (St. Louis, Mo.).
We next tested the ability of different sterols to inhibit cholesterol 25-hydroxylase. In these experiments, 293 cells were transfected with a 25-hydroxylase cDNA, treated with 2-hydroxypropyl-β-cyclodextrin to remove endogenous cholesterol, and then incubated with 3 μM [^14C]cholesterol and the indicated concentrations of unlabeled inhibitor sterol. The rank order of inhibition for the […] sterols tested was desmosterol>cholestanol>25-hydroxycholesterol>epicholesterol>sitosterol>>coprostanol=25-oxo-27-nor-cholesterol. […] In the case of desmosterol (5,24-cholestadien-3β-ol), which can not be 25-hydroxylated due to the Δ^24 bond, this sterol appears to act as a true inhibitor.

The next test has as its system gene transcription. Particulars: compared with 24- and 27-hydroxycholesterol, in vitro; cited from earlier work.

As to 2-hydroxypropyl-β-cyclodextrin, the “stimulation of 25-hydroxylase activity” value was “approximately 10 fold” in test [1] and “approximately five-fold” on human 25-hydroxylase. With `C[C@H](CCCC(C)(C)O)[C@H]1CC[C@H]2[C@@H]3CC=C4C[C@@H](O)CC[C@]4(C)[C@H]3CC[C@]12C` [25-hydroxycholesterol, cholest-5-ene-3β,25-diol], the “rank order of inhibition of cholesterol 25-hydroxylase” value in test [2] was “desmosterol>cholestanol>25-hydroxycholesterol>epicholesterol>sitosterol>>coprostanol=25-oxo-27-nor-cholesterol”. In the test on gene transcription, the “potency as regulator of gene transcription among natural oxysterols” value is “most potent regulator of gene transcription”. `CC(=O)CCC[C@@H](C)[C@H]1CC[C@H]2[C@@H]3CC=C4C[C@@H](O)CC[C@]4(C)[C@H]3CC[C@]12C` [25-oxo-27-nor-cholesterol, 27-nor-25-oxo-5-cholesten-3β-ol]: in test [2], the “rank order of inhibition of cholesterol 25-hydroxylase” value is given as “desmosterol>cholestanol>25-hydroxycholesterol>epicholesterol>sitosterol>>coprostanol=25-oxo-27-nor-cholesterol”. The same measure, in the same setting: under `CC(C)CCC[C@@H](C)[C@H]1CC[C@H]2[C@@H]3CC[C@H]4C[C@@H](O)CC[C@]4(C)[C@H]3CC[C@]12C` [cholestanol, 5α-cholestan-3β-ol] stands “desmosterol>cholestanol>25-hydroxycholesterol>epicholesterol>sitosterol>>coprostanol=25-oxo-27-nor-cholesterol”. With `CC(C)CCC[C@@H](C)[C@H]1CC[C@H]2[C@@H]3CC[C@@H]4C[C@@H](O)CC[C@]4(C)[C@H]3CC[C@]12C` [coprostanol, 5β-cholestan-3β-ol], in test [2], the “rank order of inhibition of cholesterol 25-hydroxylase” value is reported as “desmosterol>cholestanol>25-hydroxycholesterol>epicholesterol>sitosterol>>coprostanol=25-oxo-27-nor-cholesterol” and the “decrease of enzyme activity” value is “did not inhibit the enzyme”. For `CC(C)=CCC[C@@H](C)[C@H]1CC[C@H]2[C@@H]3CC=C4C[C@@H](O)CC[C@]4(C)[C@H]3CC[C@]12C` [desmosterol, 5,24-cholestadien-3β-ol], in that order: “desmosterol>cholestanol>25-hydroxycholesterol>epicholesterol>sitosterol>>coprostanol=25-oxo-27-nor-cholesterol” and 30%. For the compound `CC(C)CCC[C@@H](C)[C@H]1CC[C@H]2[C@@H]3CC=C4C[C@H](O)CC[C@]4(C)[C@H]3CC[C@]12C` [epicholesterol, 5-cholesten-3α-ol], the “rank order of inhibition of cholesterol 25-hydroxylase” value in test [2] was “desmosterol>cholestanol>25-hydroxycholesterol>epicholesterol>sitosterol>>coprostanol=25-oxo-27-nor-cholesterol”.

In the case of `CC[C@H](CC[C@@H](C)[C@H]1CC[C@H]2[C@@H]3CC=C4C[C@@H](O)CC[C@]4(C)[C@H]3CC[C@]12C)C(C)C` [sitosterol, 5-cholesten-24β-ethyl-3β-ol], in test [2], the “rank order of inhibition of cholesterol 25-hydroxylase” value is “desmosterol>cholestanol>25-hydroxycholesterol>epicholesterol>sitosterol>>coprostanol=25-oxo-27-nor-cholesterol”.
